For 24 compounds, IC50 and selectivity ratio results are on record in ChEMBL document CHEMBL3102774, “Semisynthesis of salviandulin E analogues and their antitrypanosomal activity” (Bioorg Med Chem Lett, 2014).

Data set [1] deals with Trypanosoma brucei brucei. Put plainly: Antitrypanosomal activity against Trypanosoma brucei brucei GUTat 3.1 after 72 hrs by AlamarBlue assay. The data set is classed as functional, organism-based. To be noted: GUTat 3.1, 72 h. (Resazurin is reduced to fluorescent resorufin, in cell work by metabolically active cells.)
Data set [2] relates to MRC5. Kind of data set: Cytotoxicity against human MRC5 cells. The data set is classed as cell-based.
The nature of data set [3]: Selectivity index, ratio of IC50 for human MRC5 cells to IC50 for Trypanosoma brucei brucei GUTat 3.1. In kind it is toxicity, cell-based. Conditions: read-out: Ratio IC50.

Converted amounts (≈) assume the structure as drawn.

In the case of `CC1=C2C[C@@H](O)C=C3C(=O)OC[C@]32C=CC2=C1[C@H](c1ccoc1)OC2=O`, the figures for the half-inhibitory concentration (IC50) in data set [1] and in data set [2] were 0.72 µg/mL (≈ 2.04 µM) and 0.84 µg/mL (≈ 2.38 µM), respectively. The selectivity ratio in data set [3] was 1.17.

For the compound `CC1=C2CCC=C3C(=O)OC[C@]32CCC2=C1[C@H](c1ccoc1)OC2=O`, the IC50 in data set [1] is more than 12.5 µg/mL; in data set [2], 16.2 µg/mL (≈ 47.8 µM).

As for `CC(=O)O[C@H]1C=C2C(=O)OC[C@]23C=CC2=C(C(C)=C3C1)[C@H](c1ccoc1)OC2=O`, the IC50 was determined as 0.69 µg/mL (≈ 1.75 µM) in data set [1] and 0.84 µg/mL (≈ 2.13 µM) in data set [2]. In data set [3], the selectivity ratio worked out at 1.22.

Regarding `CCC(=O)O[C@H]1C=C2C(=O)OC[C@]23C=CC2=C(C(C)=C3C1)[C@H](c1ccoc1)OC2=O`, the IC50 in data set [1] came out at 2.39 µg/mL (≈ 5.85 µM); in data set [2] it was 1.41 µg/mL (≈ 3.45 µM). The selectivity ratio in data set [3] is 0.59.

As for `CCCC(=O)O[C@H]1C=C2C(=O)OC[C@]23C=CC2=C(C(C)=C3C1)[C@H](c1ccoc1)OC2=O`, the results for the IC50 in data set [1] and in data set [2] were 1.04 µg/mL (≈ 2.46 µM) and 1.05 µg/mL (≈ 2.49 µM), respectively. Also, the selectivity ratio in data set [3] was determined as 1.01.

Consider `CCNC(=O)O[C@H]1C=C2C(=O)OC[C@]23C=CC2=C(C(C)=C3C1)[C@H](c1ccoc1)OC2=O`, for which the values for the IC50 in data set [1] and in data set [2] were 0.2 µg/mL (≈ 0.472 µM) and 0.18 µg/mL (≈ 0.425 µM), respectively. For the same compound, the selectivity ratio in data set [3] amounted to 0.9.

Consider `CCCCNC(=O)O[C@H]1C=C2C(=O)OC[C@]23C=CC2=C(C(C)=C3C1)[C@H](c1ccoc1)OC2=O`, for which the values for the IC50 in data set [1] and in data set [2] were 6.08 µg/mL (≈ 13.5 µM) and 44.3 µg/mL (≈ 98.1 µM), respectively. Also, the selectivity ratio in data set [3] came out at 7.29.

With `CC1=C2C[C@@H](OC(=O)Nc3ccccc3)C=C3C(=O)OC[C@]32C=CC2=C1[C@H](c1ccoc1)OC2=O`, the IC50 is 7.17 µg/mL (≈ 15.2 µM) in data set [1] and 17.3 µg/mL (≈ 36.6 µM) in data set [2]. Besides, the selectivity ratio in data set [3] is 2.41.

`COCO[C@H]1C=C2C(=O)OC[C@]23C=CC2=C(C(C)=C3C1)[C@H](c1ccoc1)OC2=O`: the IC50 is 1.15 µg/mL (≈ 2.9 µM) in data set [1] and 2 µg/mL (≈ 5.05 µM) in data set [2]. Besides, the selectivity ratio in data set [3] worked out at 1.73.

`CC1=C2C[C@@H](O)C[C@H]3C(=O)OC[C@@]23C=CC2=C1[C@H](c1ccoc1)OC2=O` returned an IC50 in data set [1] of more than 12.5 µg/mL.

In the case of `CC(=O)O[C@@H]1CC2=C(C)C3=C(C=C[C@]24COC(=O)[C@@H]4C1)C(=O)O[C@H]3c1ccoc1`, the results for the IC50 in data set [1] and in data set [2] were 7.73 µg/mL (≈ 19.5 µM) and more than 100 µg/mL, respectively. In addition, the selectivity ratio in data set [3] is more than 12.9.

Consider `CCC(=O)O[C@@H]1CC2=C(C)C3=C(C=C[C@]24COC(=O)[C@@H]4C1)C(=O)O[C@H]3c1ccoc1`, for which the IC50 was 5.33 µg/mL (≈ 13 µM) in data set [1] and 63.5 µg/mL (≈ 155 µM) in data set [2]. In data set [3], the selectivity ratio is 11.9.

On to `CCCC(=O)O[C@@H]1CC2=C(C)C3=C(C=C[C@]24COC(=O)[C@@H]4C1)C(=O)O[C@H]3c1ccoc1`, for which the IC50 in data set [1] worked out at 0.055 µg/mL (≈ 0.13 µM); in data set [2], 68 µg/mL (≈ 160 µM). Moreover, the selectivity ratio in data set [3] was found to be 1240.

Compound `CCNC(=O)O[C@@H]1CC2=C(C)C3=C(C=C[C@]24COC(=O)[C@@H]4C1)C(=O)O[C@H]3c1ccoc1` came in with an IC50 in data set [1] of more than 12.5 µg/mL.

For the compound `CCCNC(=O)O[C@@H]1CC2=C(C)C3=C(C=C[C@]24COC(=O)[C@@H]4C1)C(=O)O[C@H]3c1ccoc1`, the IC50 in data set [1] is 7.77 µg/mL (≈ 17.7 µM); in data set [2], 66.2 µg/mL (≈ 151 µM). In data set [3], the selectivity ratio came to 8.51.

`CC1=C2C[C@@H](OC(=O)Nc3ccccc3)C[C@H]3C(=O)OC[C@@]23C=CC2=C1[C@H](c1ccoc1)OC2=O`: the IC50 is 10.5 µg/mL (≈ 22.3 µM) in data set [1] and more than 100 µg/mL in data set [2]. For the same compound, in data set [3], the selectivity ratio was more than 9.5.

For `COCO[C@@H]1CC2=C(C)C3=C(C=C[C@]24COC(=O)[C@@H]4C1)C(=O)O[C@H]3c1ccoc1`, the IC50 in data set [1] was more than 12.5 µg/mL.

For the compound `CC(=O)OC1=CC2=C(C)C3=C(C=C[C@]24COC(=O)[C@@H]4C1)C(=O)O[C@H]3c1ccoc1`, the IC50 in data set [1] stood at 4.29 µg/mL (≈ 10.9 µM); in data set [2], 17.8 µg/mL (≈ 45.1 µM). For the same compound, the selectivity ratio in data set [3] amounted to 4.14.

In the case of `CCC(=O)OC1=CC2=C(C)C3=C(C=C[C@]24COC(=O)[C@@H]4C1)C(=O)O[C@H]3c1ccoc1`, the IC50 in data set [1] is 5.56 µg/mL (≈ 13.6 µM); in data set [2] it was 22.6 µg/mL (≈ 55.3 µM). Besides, the selectivity ratio in data set [3] was found to be 4.06.

Take `CCCC(=O)OC1=CC2=C(C)C3=C(C=C[C@]24COC(=O)[C@@H]4C1)C(=O)O[C@H]3c1ccoc1`: the IC50 worked out at 3.89 µg/mL (≈ 9.21 µM) in data set [1] and 21.6 µg/mL (≈ 51 µM) in data set [2]. For the same compound, in data set [3], the selectivity ratio was found to be 5.54.

As for `CC1=C2C=CC[C@H]3C(=O)OC[C@@]23C=CC2=C1[C@H](c1ccoc1)OC2=O`, the IC50 in data set [1] is more than 12.5 µg/mL.

In data set [2], `NCCCC(N)(C(=O)O)C(F)F` (stereo not given) [EFLORNITHINE] displayed an IC50 of more than 100 µg/mL. Besides, the selectivity ratio in data set [3] was more than 44.

In turn, `N=C(N)c1ccc(OCCCCCOc2ccc(C(=N)N)cc2)cc1` [PENTAMIDINE] showed a concentration for half-maximal inhibition (IC50) in data set [1] of 0.0017 µg/mL (≈ 0.00499 µM). In addition, the selectivity ratio in data set [3] turned out to be 3350.

In turn, `Cc1ccc(C(=O)Nc2ccc(S(=O)(=O)O)c3cc(S(=O)(=O)O)cc(S(=O)(=O)O)c23)cc1NC(=O)c1cccc(NC(=O)Nc2cccc(C(=O)Nc3cc(C(=O)Nc4ccc(S(=O)(=O)O)c5cc(S(=O)(=O)O)cc(S(=O)(=O)O)c45)ccc3C)c2)c1` [SURAMIN] displayed an IC50 in data set [2] of more than 100 µg/mL. For the same compound, the selectivity ratio in data set [3] is more than 63.

The term IC50 denotes the concentration that inhibits the measured activity by half. Low values mean greater potency in that assay, high ones weaker potency in that assay.
